Like-named read-outs stand apart in the source and are kept apart here.
Assays:
[1] = test system: T. vaginalis trophozoites (metronidazole susceptible G3 strain); assay: Trichomonas vaginalis in vitro assay; assay type: cell-based; conditions: average of 2-5 independent replicates
Method: T. vaginalis trophozoites (metronidazole susceptible G3 strain) were grown in vitro in modified Diamond's media (MDM) with 10% heat inactivated horse serum (HIHS) acquired from Gibco Life Technologies. After medium preparation, the pH was adjusted to 6.3-6.4 employing 1.0 M aq. HCl. Parasites cultures were passaged every day by taking 1 mL of cell culture into a 25 mL bottle of fresh media to ensure the cells were kept at the appropriate concentration of ˜2×10^6 cells/mL. The culture flasks were filled completely and tightly capped to provide the cells with an anaerobic environment. The parasites were maintained in incubation at 37° C. When culturing in multiwell plates, the plates were sealed with Nescofilm® and inserted in BD GasPak EZ pouches (BD Diagnostics, UK) in order to create anaerobic conditions. Assays were performed with 5×10^4 trophozoites/well (100 μL) to which compound dilutions were added (100 μL). Outside wells of columns and rows were filled with 200 μL of sterile water. Plates were sealed with Nescofilm® and incubated under anaerobic conditions as described above. After 24 h, 30 μL of assay dye solution (resorufin) was added, and incubated for 1-2 h before being read using Fluostar Optima (BMG Labtech, UK) at an excitation wavelength of 544 nm and an emission wavelength of 620 nm.

[2] = test system: T. brucei Squib 427; assay: In vitro drug susceptibility, T. brucei Squib 427 (resazurin); assay type: cell-based, Trypanosoma brucei brucei
Method: (§1) All trypanosome strains were cultured in the standard HMI-9 medium supplemented with 10% fetal bovine serum (FBS) at 37° C. in a 5% CO2 atmosphere.

[3] = Cytotoxicity against MRC-5 fibroblasts; conditions: human, MRC-5 fibroblasts, cytotoxicity
Method: (§2) Cytotoxicity was assayed against MRC-5 fibroblasts. Results are depicted in Tables 4 and 5.

[4] = test system: T. cruzi Tulahuen CL2 β galactosidase strain; assay: T. cruzi Tulahuen CL2 β galactosidase strain on MRC-5SV2 cells (CPRG); assay type: cell-based, Trypanosoma cruzi
Method: All cultures and assays were conducted at 37° C./5% CO2. […] The results were expressed as % reduction in parasite burdens compared to control wells from which an EC50 was calculated.

[5] = test system: T. b. rhodesiense STIB-900; assay: In vitro drug susceptibility, T. b. rhodesiense STIB-900 (resazurin); assay type: cell-based, Trypanosoma brucei rhodesiense
Method: as §1

[6] = test system: MRC-5 fibroblasts; assay: Cytotoxicity against MRC-5 fibroblasts; conditions: read-out: MRC-5 EC50, cytotoxicity
Method: as §2

[7] = Trypanosoma brucei, read-out: T.b. brucei EC50, Table 4, average of 2-6 independent determinations
[8] = Trypanosoma cruzi, TULAHUEN, MRC-5 SV2, Table 5, average of 2-4 independent replicates
[9] = Trypanosoma brucei, RHODESIENSE, read-out: T.b. rhod. EC50
[10] = Trypanosoma brucei, read-out: EC50 against T. brucei
[11] = Table 1, average of 2-4 independent determinations, read-out: T. brucei rhod. EC50
[12] = Table 1, average of 2-4 independent determinations, read-out: T. brucei brucei EC50
[13] = Table 2, average of 2-3 independent replicates
[14] = Trypanosoma brucei, RHODESIENSE, read-out: T. brucei rhod. EC50
[15] = Trypanosoma brucei, read-out: T. brucei brucei EC50, Table 1, average of 2-4 independent determinations
[16] = Trypanosoma cruzi, TULAHUEN, MRC-5 SV2, Table 2, average of 2-3 independent replicates

Cc1ccc(-c2cn([C@@H]3O[C@H](CO)[C@@H](O)[C@H]3O)c3ncnc(N)c23)cc1 [TH1011, 4-amino-5-(4-methylphenyl)-N7-(β-D-ribofuranosyl)-pyrrolo[2,3-d]pyrimidine]
melting point: 165 °C | EC50 ([1]; Trichomonas vaginalis, Table 6): 0.06 µM | EC50 [2, 7]: 29.1 µM | EC50 ([3]; MRC-5 EC50, Table 4): 26.2 µM | EC50 ([3]; MRC-5 EC50, Table 5): 26.2 µM | EC50 [4, 8]: 1.5 µM

Nc1ncnc2c1c(-c1ccc(F)cc1)cn2[C@@H]1O[C@H](CO)[C@@H](O)[C@H]1O [MS1001, 4-amino-5-(4-fluorophenyl)-N7-(β-D-ribofuranosyl)-pyrrolo[2,3-d]pyrimidine]
melting point: 145 to 148 °C (dec.) | EC50 ([1]; Trichomonas vaginalis, Table 6): 0.11 µM | EC50 [5, 9]: 14.7 µM | EC50 [2, 10]: < 10 µM | EC50 [2, 7]: 8.81 µM | EC50 ([3]; MRC-5 EC50, Table 4): > 64 µM | EC50 ([3]; MRC-5 EC50, Table 5): > 64 µM | EC50 [4, 8]: 0.49 µM

Nc1ncnc2c1c(-c1cccc(Cl)c1)cn2[C@@H]1O[C@H](CO)[C@@H](O)[C@H]1O [FH8459, 4-amino-5-(3-chlorophenyl)-N7-(β-D-ribofuranosyl)-pyrrolo[2,3-d]pyrimidine]
melting point: 135 °C | EC50 ([1]; Trichomonas vaginalis, Table 6): 0.24 µM | EC50 [5, 9]: 6.88 µM | EC50 [2, 10]: < 10 µM | EC50 [2, 7]: 9.9 µM | EC50 ([3]; MRC-5 EC50, Table 4): 32.8 µM | EC50 ([3]; MRC-5 EC50, Table 5): 32.8 µM | EC50 [4, 8]: 1.42 µM

Nc1ncnc2c1c(-c1ccccc1)cn2[C@@H]1O[C@H](CO)[C@@H](O)[C@H]1O [TH1004, 4-amino-5-phenyl-N7-(β-D-ribofuranosyl)-pyrrolo[2,3-d]pyrimidine]
EC50 ([1]; Trichomonas vaginalis, Table 6): 0.43 µM | EC50 [5, 9]: 4.1 µM | EC50 [2, 7]: 32.3 µM | EC50 ([3]; MRC-5 EC50, Table 4): 56.2 µM | EC50 ([3]; MRC-5 EC50, Table 5): 56.2 µM | EC50 [4, 8]: 3.44 µM

Nc1ncnc2c1c(-c1ccc(OC(F)(F)F)cc1)cn2[C@@H]1O[C@H](CO)C[C@H]1O [FH9577, 4-amino-5-(4-trifluoromethoxyphenyl)-N7-(3′-deoxy-β-D-ribofuranosyl)-pyrrolo[2,3-d]pyrimidine]
EC50 ([1]; Table 3): 0.79 µM | EC50 [5, 11]: 9.8 µM | EC50 [2, 12]: 24.5 µM | EC50 ([6]; Table 1): 40.4 µM | EC50 ([6]; Table 2): 40.4 µM | EC50 [4, 13]: 1.39 µM

Nc1ncnc2c1c(-c1ccc3ccccc3c1)cn2[C@@H]1O[C@H](CO)[C@@H](O)[C@H]1O [FH8461, 4-amino-5-(2-naftyl)-N7-(β-D-ribofuranosyl)-pyrrolo[2,3-d]pyrimidine]
EC50 ([1]; Table 6): 0.58 µM | EC50 ([5]; Table 4, average of 2-6 independent determinations, read-out: T.b. rhod. EC50): 6.79 µM | EC50 ([2]; Table 4, average of 2-6 independent determinations, read-out: T.b. brucei EC50): 7.83 µM | EC50 ([6]; Table 4): 7.53 µM | EC50 ([6]; Table 5): 7.53 µM | EC50 ([4]; Table 5, average of 2-4 independent replicates): 2.48 µM

Cc1ncc([N+](=O)[O-])n1CCO [Metronidazole, reference compound]
EC50 ([1]; Trichomonas vaginalis, Table 3): 0.53 µM

Cc1ccc(-c2cn([C@@H]3O[C@H](CO)C[C@H]3O)c3ncnc(N)c23)cc1Cl [FH10644, 4-amino-5-(3-chloro-4-methylphenyl)-N7-(3′-deoxy-β-D-ribofuranosyl)-pyrrolo[2,3-d]pyrimidine]
melting point: 135 °C | EC50 [5, 14]: 5.99 µM | EC50 [2, 15]: 4.74 µM | EC50 ([3]; MRC-5 EC50, Table 1): 17.9 µM | EC50 ([3]; MRC-5 EC50, Table 2): 17.9 µM | EC50 [4, 16]: 0.27 µM

Nc1ncnc2c1c(-c1ccc([N+](=O)[O-])cc1)cn2[C@@H]1O[C@H](CO)C[C@H]1O [FH9582, 4-amino-5-(4-nitrophenyl)-N7-(3′-deoxy-β-D-ribofuranosyl)-pyrrolo[2,3-d]pyrimidine]
melting point: 254 °C (dec.) | EC50 [5, 14]: 0.32 µM | EC50 [2, 15]: 2.1 µM | EC50 ([3]; MRC-5 EC50, Table 1): > 64 µM | EC50 ([3]; MRC-5 EC50, Table 2): > 64 µM | EC50 [4, 16]: 1.2 µM

Nc1ncnc2c1c(-c1ccc(Cl)c(Cl)c1)cn2[C@@H]1O[C@H](CO)C[C@H]1O [FH8513]
EC50 ([1]; Trichomonas vaginalis, Table 3): 0.33 µM | EC50 [5, 14]: 1.5 µM | EC50 [2, 15]: 1.8 µM | EC50 ([3]; MRC-5 EC50, Table 1): 13.6 µM | EC50 ([3]; MRC-5 EC50, Table 2): 13.6 µM | EC50 [4, 16]: 0.06 µM

COc1ccc(-c2cn([C@@H]3O[C@H](CO)C[C@H]3O)c3ncnc(N)c23)cc1 [FH8494, 4-amino-5-(4-methoxyphenyl)-N7-(3′-deoxy-β-D-ribofuranosyl)-pyrrolo[2,3-d]pyrimidine]
EC50 ([1]; Table 3): 0.73 µM | EC50 [5, 11]: 1.2 µM | EC50 [2, 12]: 3.7 µM | EC50 ([6]; Table 1): 24.3 µM | EC50 ([6]; Table 2): 24.3 µM | EC50 [4, 13]: 2.4 µM

Nc1ncnc2c1c(-c1cccc(Cl)c1)cn2[C@@H]1O[C@H](CO)C[C@H]1O [FH10641, 4-amino-5-(3-chlorophenyl)-N7-(3′-deoxy-β-D-ribofuranosyl)-pyrrolo[2,3-d]pyrimidine]
melting point: 130 °C | EC50 [5, 14]: 0.55 µM | EC50 [2, 15]: 7.13 µM | EC50 ([3]; MRC-5 EC50, Table 1): 36.1 µM | EC50 ([3]; MRC-5 EC50, Table 2): 36.1 µM | EC50 [4, 16]: 0.97 µM

Nc1ncnc2c1c(-c1ccc(Cl)cn1)cn2[C@@H]1O[C@H](CO)[C@@H](O)[C@H]1O [MS1039, 4-amino-5-(5-chloro-pyrid-2-yl)-N7-(β-D-ribofuranosyl)-pyrrolo[2,3-d]pyrimidine]
EC50 ([1]; Trichomonas vaginalis, Table 6): 0.86 µM | EC50 [5, 9]: 4.6 µM | EC50 [2, 7]: 8.97 µM | EC50 ([3]; MRC-5 EC50, Table 4): > 64 µM | EC50 ([3]; MRC-5 EC50, Table 5): > 64 µM | EC50 [4, 8]: 2.39 µM

Nc1ncnc2c1c(Br)cn2[C@@H]1O[C@H](CSCCO)C[C@H]1O [FH9591, 4-amino-5-bromo-N7-(3′-deoxy-5′-thio-ethan-2-ol-β-D-ribofuranosyl)-pyrrolo[2,3-d]pyrimidine]
melting point: 164 °C | EC50 [5, 14]: 0.71 µM | EC50 [2, 15]: 5.05 µM | EC50 ([3]; MRC-5 EC50, Table 1): 26.5 µM | EC50 ([3]; MRC-5 EC50, Table 2): 26.5 µM | EC50 [4, 16]: 33.8 µM

Nc1ncnc2c1c(-c1ccc(C(F)(F)F)cc1)cn2[C@@H]1O[C@H](CO)C[C@H]1O [FH9576, 4-amino-5-(4-trifluoromethylphenyl)-N7-(3′-deoxy-β-D-ribofuranosyl)-pyrrolo[2,3-d]pyrimidine]
EC50 ([1]; Trichomonas vaginalis, Table 3): 0.26 µM | EC50 [5, 14]: 6.6 µM | EC50 [2, 15]: 19.5 µM | EC50 ([3]; MRC-5 EC50, Table 1): 40 µM | EC50 ([3]; MRC-5 EC50, Table 2): 40 µM | EC50 [4, 16]: 0.53 µM

CCc1cn([C@@H]2O[C@H](CO)C[C@H]2O)c2ncnc(N)c12 [FH9613, 4-amino-5-ethyl-N7-(3′-deoxy-β-D-ribofuranosyl)-pyrrolo[2,3-d]pyrimidine]
melting point: 200 °C | EC50 [5, 14]: 0.65 µM | EC50 [2, 15]: 1.78 µM | EC50 ([3]; MRC-5 EC50, Table 1): > 64 µM | EC50 ([3]; MRC-5 EC50, Table 2): > 64 µM | EC50 [4, 16]: 19.7 µM

CCc1ccc(-c2cn([C@@H]3O[C@H](CO)C[C@H]3O)c3ncnc(N)c23)cc1 [FH10647]
melting point: 114 °C | EC50 [5, 14]: 1.5 µM | EC50 [2, 15]: 7.58 µM | EC50 ([3]; MRC-5 EC50, Table 1): 18.4 µM | EC50 ([3]; MRC-5 EC50, Table 2): 18.4 µM | EC50 [4, 16]: 1.04 µM

From US11072628B2, “Nucleoside analogues for the treatment of parasitic infections” (UNIVERSITEIT GENT, priority 2017, dated 2021)
